These results are taken from patent US8338422B2, “Indolin-2-ones and aza-indolin-2-ones” (Janssen Pharmaceutica NV, priority 2007, dated 2012).

Holding throughout (assay type): biochemical
For experiment [1], the target named is PLK4 (h) (Homo sapiens, UniProt O00444). As to the kind of experiment: PLK-4 human kinase assay (SPA). Particulars: for IC50: read-out: PLK4 pIC50 (converted). The procedure: (§1) The in vitro inhibition of a panel of kinases was assessed using either the scintillation proximity assay (SPA) as described by Cook, N. D. et al., Advances in Experimental Medicine and Biology (1991), 36; p. 525-528; or the Fluorescence Resonance Energy Transfer (FRET) technology as described by Rodems, S. M. et al., Assay Drug Develop. Technol. (2002), 1; p. 9-19.
(§2) In the SPA technology the activity of the kinase of interest is measured using an appropriate biotinylated substrate that is incubated with the aforementioned kinase protein in the presence of (^33P) radiolabeled ATP. (^33P) Phosporylation of the substrate is subsequently measured through binding of the phosphorylated substrate to streptavidine coated beads that are based on the scintillant poly(vinyl toluene) (PVT-Beads). The scintillation intensity is detected by imaging on Leadseeker.
(§3) All kinases are pre-diluted to a 10× working concentration prior to addition into the assay. The composition of the dilution buffer for each kinase is detailed below.
In a final reaction volume of 30 μl PLK4 (h) (19 μg/ml) is incubated with 50 mM Hepes pH 8.0, 10 mM MgCl2, 50 mM NaCl, 1 mM NaF, 1 mM DTT, 10 μM of peptide Biotin-RPRGQRDSSYYWE-OH, 1 μM ATP and 2 nM [γ-^33P-ATP] (6.0 μCi/ml). After incubation of 60 minutes at room temperature, the reaction is stopped by addition of 40 μl, of stop solution containing 8.7 mM EDTA, BSA 0.17%, 0.17% Triton X-100, 1.7 mg/ml SPA beads (GE-healthcare). The plate is centriguged and read for Scintillation imaging on Leadseeker.

For experiment [2], the target named is AuroraB (h) (Homo sapiens, UniProt Q96GD4). As to the kind of experiment: Aurora-B human kinase assay (SPA). To be noted: for IC50: read-out: AuroraB pIC50 (converted). The method, then: as §1, §2, §3
In a final reaction volume of 30 μl, AuroraB (h) (0.5 μg/ml) is incubated with 60 mM Hepes pH 7.5, 3 mM MgCl2, 3 mM MnCl2, 3 μM Na3VO4, 0.05 mg/ml PEG, 2 mM DTT, 3 μM Biotin-[…]-OH, 0.5 μM ATP and 2.2 nM [γ-^33P-ATP] (6.8 μCi/ml). After incubation of 60 minutes at room temperature, the reaction is stopped by addition of 40 μL of stop solution containing 8.7 mM EDTA, BSA 0.17%, 0.17% Triton X-100, 5 mg/ml SPA beads (GE-healthcare). The plate is centriguged and read for Scintillation imaging on Leadseeker.

Experiment [3] has as its target GSK3β (h) (Homo sapiens, UniProt P49841). As to the kind of experiment: GSK-3β human kinase assay (SPA). To be noted: for IC50: read-out: GSK3B pIC50 (converted). The method, then: as §1, §2, §3
In a final reaction volume of 30 μl, GSK3β (h) (1 μg/ml) is incubated with 25 mM Tris pH 7.4, 10 mM MgCl2, 1 mM DTT, 1 μM peptide Biotin-KRREILSRRPSYR-OH, 1 μM ATP and 2 nM [γ-^33P-ATP] (6.0 μCi/ml). After incubation of 60 minutes at room temperature, the reaction is stopped by addition of […] of stop solution containing 8.7 mM EDTA, BSA 0.17%, 0.17% Triton X-100, 6.25 mg/ml SPA beads (GE-healthcare). The plate is centriguged and read for Scintillation imaging on Leadseeker.

In experiment [4] the target is CDK1/CyclinB (h) (Homo sapiens, UniProt P06493). As to the kind of experiment: CDK1/CyclinB human kinase assay (FRET). Particulars: for IC50: read-out: CDK1 pIC50 (converted). The method, then: as §1
In the FRET technology the activity of the kinase of interest is measured using an appropriate substrate that is labeled with two fluorophores (coumarin and fluorescein). Phosphorylation is determined using a developing reagent comprising a protease that recognizes and cleaves nonphosphorylated peptides. Cleavage will disturb the FRET between the fluorescein and coumarin on the peptide. Uncleaved, phosphorylated peptides maintain the FRET signal. A ratiometric readout of the donor emission over the acceptor emission quantitates the reaction process.
as §3
In a final reaction volume of 10 μl, CDK1/CyclinB (h) (0.2 μg/ml) is incubated with 50 mM Hepes pH 7.5, 10 mM MgCl2, 1 mM EGTA, 0.01% Brij-35, 2 μM Z'lyte Ser/Thr peptide 12 and 10 μM ATP (Invitrogen's FRET assay). After incubation of 60 minutes at room temperature, the reaction is stopped by addition of 5 μL development reagent containing protease mix. After 60 minutes room temperature the development reaction is stopped by adding 5 μl stop solution. The plate is then read in fluorescence plate reader with excitation: 390 nm and dual emission: 460 and 538 nm. Emission ratio is determined to the formula=Emission signal intensity at 460 nm/Emission signal intensity at 538 nm.

Where “and” joins values, the source holds several entries; their conditions need not be identical. Equal values may be shown once.

Chain of GSK3β (h) (P49841 whole entry): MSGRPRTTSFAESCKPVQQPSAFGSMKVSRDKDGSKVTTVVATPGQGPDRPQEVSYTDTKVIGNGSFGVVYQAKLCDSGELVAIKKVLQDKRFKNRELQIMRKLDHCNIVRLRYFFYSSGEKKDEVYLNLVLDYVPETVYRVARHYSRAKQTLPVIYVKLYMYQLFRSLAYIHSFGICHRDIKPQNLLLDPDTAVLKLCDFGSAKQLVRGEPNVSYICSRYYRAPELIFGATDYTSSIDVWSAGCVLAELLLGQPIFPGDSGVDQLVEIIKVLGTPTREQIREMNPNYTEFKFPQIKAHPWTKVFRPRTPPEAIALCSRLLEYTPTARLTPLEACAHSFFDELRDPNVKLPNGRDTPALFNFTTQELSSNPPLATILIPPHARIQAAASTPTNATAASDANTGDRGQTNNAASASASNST
Chain of CDK1/CyclinB (h) (P06493 whole entry): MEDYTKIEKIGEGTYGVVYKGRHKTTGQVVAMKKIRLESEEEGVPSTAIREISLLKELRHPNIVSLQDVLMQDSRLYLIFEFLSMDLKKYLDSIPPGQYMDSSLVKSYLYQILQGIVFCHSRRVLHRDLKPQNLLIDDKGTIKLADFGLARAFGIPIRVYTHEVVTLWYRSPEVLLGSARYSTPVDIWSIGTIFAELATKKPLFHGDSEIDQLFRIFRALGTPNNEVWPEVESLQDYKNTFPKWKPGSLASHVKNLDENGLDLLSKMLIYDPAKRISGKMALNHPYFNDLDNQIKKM
Chain of CDK1/CyclinB (h) (P14635 whole entry partner): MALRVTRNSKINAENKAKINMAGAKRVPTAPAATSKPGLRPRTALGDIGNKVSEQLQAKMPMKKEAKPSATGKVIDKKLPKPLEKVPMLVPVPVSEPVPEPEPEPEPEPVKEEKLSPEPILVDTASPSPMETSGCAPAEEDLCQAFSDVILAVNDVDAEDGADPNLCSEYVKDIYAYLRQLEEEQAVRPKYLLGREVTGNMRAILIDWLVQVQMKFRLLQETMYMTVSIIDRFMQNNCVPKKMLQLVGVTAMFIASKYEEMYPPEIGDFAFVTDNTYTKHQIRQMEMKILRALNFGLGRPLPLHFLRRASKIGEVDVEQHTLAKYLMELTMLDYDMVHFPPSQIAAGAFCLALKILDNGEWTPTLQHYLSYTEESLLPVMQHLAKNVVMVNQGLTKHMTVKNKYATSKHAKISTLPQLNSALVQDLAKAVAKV
Chain of AuroraB (h) (Q96GD4 whole entry): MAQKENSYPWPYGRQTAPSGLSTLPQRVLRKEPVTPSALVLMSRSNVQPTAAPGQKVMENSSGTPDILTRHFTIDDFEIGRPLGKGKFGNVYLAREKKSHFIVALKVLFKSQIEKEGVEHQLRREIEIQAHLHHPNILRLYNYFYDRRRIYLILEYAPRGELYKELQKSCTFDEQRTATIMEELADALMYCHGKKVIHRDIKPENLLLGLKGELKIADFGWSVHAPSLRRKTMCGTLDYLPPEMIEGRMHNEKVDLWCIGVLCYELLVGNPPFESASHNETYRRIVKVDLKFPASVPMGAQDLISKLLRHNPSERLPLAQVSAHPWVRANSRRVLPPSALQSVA
Chain of PLK4 (h) (O00444 whole entry): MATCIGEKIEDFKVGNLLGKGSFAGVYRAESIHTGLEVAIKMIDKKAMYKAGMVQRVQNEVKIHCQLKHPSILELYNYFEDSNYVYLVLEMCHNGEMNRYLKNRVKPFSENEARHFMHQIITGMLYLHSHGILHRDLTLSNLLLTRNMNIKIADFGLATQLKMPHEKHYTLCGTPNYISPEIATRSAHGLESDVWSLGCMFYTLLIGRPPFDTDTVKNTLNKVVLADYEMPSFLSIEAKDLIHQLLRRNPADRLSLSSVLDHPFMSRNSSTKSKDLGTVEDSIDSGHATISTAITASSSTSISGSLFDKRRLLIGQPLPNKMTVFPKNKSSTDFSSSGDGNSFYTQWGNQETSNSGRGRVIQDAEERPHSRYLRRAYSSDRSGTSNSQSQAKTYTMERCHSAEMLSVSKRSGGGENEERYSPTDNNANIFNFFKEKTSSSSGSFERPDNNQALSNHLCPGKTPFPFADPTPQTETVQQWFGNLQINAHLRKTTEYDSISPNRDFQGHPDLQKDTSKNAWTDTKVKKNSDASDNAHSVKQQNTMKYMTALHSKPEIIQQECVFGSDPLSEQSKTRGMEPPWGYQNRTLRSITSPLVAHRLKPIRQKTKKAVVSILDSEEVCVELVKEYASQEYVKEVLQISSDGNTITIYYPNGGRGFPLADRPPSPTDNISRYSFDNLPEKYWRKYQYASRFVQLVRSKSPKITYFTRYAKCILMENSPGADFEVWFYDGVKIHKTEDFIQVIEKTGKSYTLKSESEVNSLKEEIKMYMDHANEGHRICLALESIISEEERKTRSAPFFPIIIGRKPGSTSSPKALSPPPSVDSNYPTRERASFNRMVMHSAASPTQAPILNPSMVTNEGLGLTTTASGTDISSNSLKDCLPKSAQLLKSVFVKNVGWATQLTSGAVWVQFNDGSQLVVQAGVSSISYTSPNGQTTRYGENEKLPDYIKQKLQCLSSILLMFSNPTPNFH

Regarding `CN1CCCNc2ncnc3c2C(=CNc2ccc(Cl)c(c2)OCCCC1=O)C(=O)N3` (mixture of isomers) [Compound 63], in experiment [1], the “PLK4 pIC50” value turned out to be 6.52. Moreover, in experiment [2], the “AuroraB pIC50” value amounted to 7.01. In addition, the “GSK3B pIC50” value in experiment [3] turned out to be 7.68. The “CDK1 pIC50” value in experiment [4] turned out to be 6.1.

With `COc1ccc2cc1CN(C)CCCCCCC(=O)N(C)CCCNc1ncnc3c1C(=CN2)C(=O)N3` (mixture of isomers) [Compound 68], in experiment [1], the “PLK4 pIC50” value came out at 5.74. In addition, the “AuroraB pIC50” value in experiment [2] was less than 5. Further, in experiment [3], the “GSK3B pIC50” value was 5.04. In addition, the “CDK1 pIC50” value in experiment [4] is listed as less than 5.

Turning to `CN1CCCNc2ncnc3c2C(=CNc2cccc(c2)OCCCCC1=O)C(=O)N3` (mixture of isomers) [Compound 70], in experiment [1], the “PLK4 pIC50” value was found to be 6.75. Further, the “AuroraB pIC50” value in experiment [2] is listed as 6.8. Besides, the “GSK3B pIC50” value in experiment [3] came out at 7.28. Further, the “CDK1 pIC50” value in experiment [4] stood at 5.61.

In the case of `CN1CCCNc2ncnc3c2C(=CNc2cccc(c2)OCCCCCC1=O)C(=O)N3` (mixture of isomers) [Compound 71], the “PLK4 pIC50” value in experiment [1] was determined as 6.7. Further, the “AuroraB pIC50” value in experiment [2] amounted to 6.15. Moreover, the “GSK3B pIC50” value in experiment [3] was found to be 7.21. In experiment [4], the “CDK1 pIC50” value was 5.56.

As to `COc1ccc2cc1OCCCCCCC(=O)N(C)CCNc1ncnc3c1C(=CN2)C(=O)N3` (mixture of isomers) [Compound 76], the “PLK4 pIC50” value in experiment [1] is 5.72. Further, the “AuroraB pIC50” value in experiment [2] was found to be 6.28. The “GSK3B pIC50” value in experiment [3] is 6.54. Also, the “CDK1 pIC50” value in experiment [4] is reported as less than 5.

Regarding `CN1CCCN(C)c2ncnc3c2C(=CNc2ccc(Cl)c(c2)OCCCC1=O)C(=O)N3` (mixture of isomers) [Compound 86], the “PLK4 pIC50” value in experiment [1] is listed as 5.9. Moreover, the “AuroraB pIC50” value in experiment [2] was 5.47. Further, in experiment [3], the “GSK3B pIC50” value was determined as 6.42. The “CDK1 pIC50” value in experiment [4] is less than 5.

On to `COc1ccc2cc1CN(C)CCCCC(=O)N(C)CCCN(C)c1ncnc3c1C(=CN2)C(=O)N3` (mixture of isomers) [Compound 87], for which the “PLK4 pIC50” value in experiment [1] is less than 5. Besides, the “AuroraB pIC50” value in experiment [2] is reported as less than 5. The “GSK3B pIC50” value in experiment [3] came to 6.17. In experiment [4], the “CDK1 pIC50” value is less than 5.

Take `CN1CCCN(C)c2ncnc3c2C(=CNc2cccc(c2)OCCCC1=O)C(=O)N3` (mixture of isomers) [Compound 88]: the “PLK4 pIC50” value in experiment [1] worked out at 5.85. Besides, the “AuroraB pIC50” value in experiment [2] stood at 5.33. Moreover, the “GSK3B pIC50” value in experiment [3] is given as 6.26. Moreover, in experiment [4], the “CDK1 pIC50” value is listed as less than 5.

As for `COc1ccc2cc1CN(C)CCCCCC(=O)N(C)CCCN(C)c1ncnc3c1C(=CN2)C(=O)N3` (mixture of isomers) [Compound 89], the “PLK4 pIC50” value in experiment [1] was less than 5. Moreover, the “AuroraB pIC50” value in experiment [2] is less than 5. Also, the “GSK3B pIC50” value in experiment [3] is recorded as less than 5. In addition, the “CDK1 pIC50” value in experiment [4] is on record as less than 5.

As for `CN1CC(=O)N2CCN(CC2)c2cccc3c2/C(=C/Nc2cccc(c2)S1(=O)=O)C(=O)N3` [Compound 2], the IC50 in experiment [1] is 4.57 µM; in experiment [2] it was greater than 10 µM; in experiment [3], 1.17 µM; in experiment [4] it was 5.62 µM.

Turning to `COc1cc2cc(c1OC)CN(C)CCCC(=O)N(C)CCCNc1ncnc3c1/C(=C/N2)C(=O)N3` [Compound 6], the IC50 in experiment [1] was 6.17 µM; in experiment [2] it was greater than 10 µM; in experiment [3], greater than 10 µM; in experiment [4], roughly 10 µM.

Consider `CN1CCCC(=O)N(C)CCCNc2ncnc3c2/C(=C/Nc2ccc(N4CCOCC4)c(c2)C1)C(=O)N3` [Compound 7], for which the IC50 in experiment [1] was 0.759 µM; in experiment [2], greater than 10 µM; in experiment [3] it was 0.0741 µM; in experiment [4] it was 1.7 µM.

For `CN1CCNc2ncnc3c2/C(=C/Nc2ccc(N4CCOCC4)c(c2)OCCCC1=O)C(=O)N3` [Compound 8], the IC50 in experiment [1], in experiment [2], in experiment [3] and in experiment [4] was greater than 10 µM throughout.

Regarding `CN1CCC(=O)NCC#Cc2cccc3c2/C(=C/Nc2cccc(c2)S(=O)(=O)N(C)CC1=O)C(=O)N3` [Compound 21], the IC50 in experiment [1] is 1.86 µM; in experiment [2] it was greater than 10 µM; in experiment [3] it was 4.68 µM; in experiment [4], greater than 10 µM.

Turning to `N#Cc1ccc2cc1OCCCCC(=O)N1CCN(CC1)c1ncnc3c1/C(=C/N2)C(=O)N3` [Compound 26], the IC50 in experiment [1] was greater than 10 µM; in experiment [2], greater than 10 µM; in experiment [3], 2.63 µM; in experiment [4] it was greater than 10 µM.

Regarding `CN1CCNc2ncnc3c2/C(=C/Nc2ccc(Cl)c(c2)OCCCCC1=O)C(=O)N3` [Compound 56], the IC50 in experiment [1] was 3.47 µM; in experiment [2], 0.759 µM; in experiment [3], 0.166 µM; in experiment [4] it was ~6.76 µM and 6.76 µM.

As for `CN1CCNc2ncnc3c2/C(=C/Nc2ccc(Cl)c(c2)OCCCCCC1=O)C(=O)N3` [Compound 57], the IC50 in experiment [1] was 4.79 µM; in experiment [2], 1.07 µM; in experiment [3], 0.263 µM; in experiment [4], greater than 10 µM.

As to `CN1CCNc2ncnc3c2/C(=C/Nc2cccc(c2)OCCCCCCC1=O)C(=O)N3` [Compound 59], the IC50 is 4.37 µM in experiment [1], 5.13 µM in experiment [2], 1.05 µM in experiment [3] and greater than 10 µM in experiment [4].

In the case of `CN1CCNc2ncnc3c2/C(=C/Nc2ccc(Cl)c(c2)OCCCC1=O)C(=O)N3` [Compound 60], the IC50 in experiment [1] is 1.74 µM; in experiment [2], 0.891 µM; in experiment [3] it was 0.263 µM; in experiment [4], 0.229 µM.

Regarding `CN1CCCNc2ncnc3c2/C(=C/Nc2ccc(Cl)c(c2)OCCCCCC1=O)C(=O)N3` [Compound 64], the IC50 was 2.14 µM in experiment [1], 0.794 µM in experiment [2], 0.0427 µM in experiment [3] and greater than 10 µM in experiment [4].

With `CN1CCCNc2ncnc3c2/C(=C/Nc2ccc(Cl)c(c2)OCCCCCCC1=O)C(=O)N3` [Compound 65], the IC50 was 8.91 µM in experiment [1], greater than 10 µM in experiment [2], 1.38 µM in experiment [3] and greater than 10 µM in experiment [4].

`COc1ccc2cc1OCCCCCC(=O)N(C)CCCNc1ncnc3c1/C(=C/N2)C(=O)N3` [Compound 66]: the IC50 in experiment [1] is 0.479 µM; in experiment [2], 0.347 µM; in experiment [3], 0.0776 µM; in experiment [4], 2.34 µM.

For the compound `COc1ccc2cc1CN(C)CCCCC(=O)N(C)CCCNc1ncnc3c1/C(=C/N2)C(=O)N3` [Compound 67], the IC50 in experiment [1] was 5.62 µM; in experiment [2], greater than 10 µM; in experiment [3] it was 0.178 µM; in experiment [4] it was 0.603 µM.

For the compound `COc1ccc2cc1OCCCCCCC(=O)N(C)CCCNc1ncnc3c1/C(=C/N2)C(=O)N3` [Compound 72], the IC50 in experiment [1] was 1.45 µM; in experiment [2], 1.91 µM; in experiment [3], 0.575 µM; in experiment [4], greater than 10 µM.

For the compound `CN1CCCC(=O)N(C)CCCNc2ncnc3c2/C(=C/Nc2cccc(c2)C1)C(=O)N3` [Compound 73], the IC50 in experiment [1] is 3.72 µM; in experiment [2], greater than 10 µM; in experiment [3], 0.851 µM; in experiment [4], 1.78 µM.
